21 compounds from US20230374015A1, “INHIBITORS OF FIBROBLAST GROWTH FACTOR RECEPTOR KINASES” (Kinnate Biopharma Inc., priority 2020, published 2023) can be followed below.

In experiment [1] the target is T1, FGFR2 (Homo sapiens, UniProt P21802). In words: FGFR2 Kinase Protocol - Condition 1 (Reaction Biology HotSpot radiometric kinase assay). The format is biochemical. Conditions: 20-min incubation of compound with kinase before ATP; poly[Glu:Tyr] (4:1) 0.2 mg/ml; ATP 100 micromolar; 2 hr room temperature. How it is done: Example 1: FGFR2 Kinase Protocol—Condition 1
The Reaction Biology HotSpot assay platform (http://www.reactionbiology.com) was used to measure kinase/inhibitor interactions as described previously (Anastassiadis et al., 2011). In brief, for each reaction, kinase and substrate were mixed in a buffer containing 20 mM HEPES (pH 7.5), 10 mM MgCl2, 1 mM EGTA, 0.02% Brij35, 0.02 mg/mL BSA, 0.1 mM Na3VO4, 2 mM DTT, and 1% DMSO. All compounds were in powder form and freshly solubilized in DMSO for assays. Compounds were then added to each reaction mixture via acoustic dispense using an ECHO 550 nanoliter dispenser. For Human FGFR2 wildtype testing, a peptide substrate, poly[Glu:Tyr] (4:1) was used to promote the reaction at a concentration of 0.2 mg/ml. For Human FGFR2 (V564F) testing, a peptide substrate, poly[Glu:Tyr] (4:1) was used to promote the reaction at a concentration of 0.2 mg/ml. ATP concentration for all assays was maintained at 100 micromolar. Compounds were tested in 10-dose IC50 mode with a 3-fold serial dilution. After a 20-min incubation, ATP (Sigma-Aldrich, St. Louis, MO 63178) and [g33P] ATP (specific activity 10 microCi/microliter) purchased at PerkinElmer (Boston, MA, 02118 Cat #BLU 003H250UC) were added at a final total concentration of […]. Reactions were carried out at room temperature for 2 hr and spotted onto P81 ion exchange cellulose chromatography paper (Reaction Biology). Filter paper was washed in 0.75% phosphoric acid to remove unincorporated ATP. The percent remaining kinase activity relative to a vehicle-containing (DMSO) kinase reaction was calculated for each kinase/inhibitor pair. IC50 values were calculated using Dotmatics Knowledge Solutions Studies curve fitting (Dotmatics, Bishops Stortford, UK, CM23).

Experiment [2] has as its target T1, FGFR2. Briefly: FGFR2 Kinase Protocol - Condition 2 (Reaction Biology HotSpot radiometric kinase assay, no preincubation). The experiment is classed as biochemical. Conditions: poly[Glu:Tyr] (4:1) 0.2 mg/ml, ATP 100 microM, 2 hr room temperature. Summed up: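 Ten-point, 3-fold compound dilutions were tested against wildtype or V564F FGFR2 with 100 µM ATP (33P-labelled), no preincubation, and 0.2 mg/ml poly[Glu:Tyr] (4:1) substrate. After 2 hr at room temperature, incorporation was read on P81 filter paper; IC50 fitted from activity remaining relative to vehicle.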

T1 sequence (P21802 22-821): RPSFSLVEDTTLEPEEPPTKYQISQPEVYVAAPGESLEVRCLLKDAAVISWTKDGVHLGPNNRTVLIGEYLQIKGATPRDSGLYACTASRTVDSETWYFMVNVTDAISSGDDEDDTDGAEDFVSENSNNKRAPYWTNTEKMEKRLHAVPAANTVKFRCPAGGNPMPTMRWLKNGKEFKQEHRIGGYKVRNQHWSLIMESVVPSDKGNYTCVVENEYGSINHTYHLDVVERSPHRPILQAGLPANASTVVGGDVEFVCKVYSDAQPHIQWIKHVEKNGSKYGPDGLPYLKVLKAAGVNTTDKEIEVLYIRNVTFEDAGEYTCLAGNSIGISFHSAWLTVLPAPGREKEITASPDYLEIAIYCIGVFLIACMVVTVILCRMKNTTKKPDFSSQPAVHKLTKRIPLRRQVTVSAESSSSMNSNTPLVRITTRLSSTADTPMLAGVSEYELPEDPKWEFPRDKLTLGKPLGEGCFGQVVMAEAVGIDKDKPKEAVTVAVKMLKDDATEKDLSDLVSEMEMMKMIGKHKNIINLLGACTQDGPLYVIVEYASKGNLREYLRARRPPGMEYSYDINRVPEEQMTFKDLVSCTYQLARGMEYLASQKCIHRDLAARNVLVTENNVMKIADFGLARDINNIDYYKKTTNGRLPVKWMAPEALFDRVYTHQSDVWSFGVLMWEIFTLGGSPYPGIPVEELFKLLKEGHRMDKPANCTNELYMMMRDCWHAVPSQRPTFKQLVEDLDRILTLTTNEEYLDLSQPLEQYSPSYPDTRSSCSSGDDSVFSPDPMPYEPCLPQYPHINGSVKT

For `C=CC(=O)N1C[C@@H](n2nc(C#Cc3c(F)cc4nc(C)[nH]c4c3F)c3c(N)nccc32)C[C@@H]1COC` [Example 18, 1-((2R,4S)-4-(4-amino-3-((5,7-difluoro-2-methyl-1H-benzo[d]imidazol-6-yl)ethynyl)-1H-pyrazolo[4,3-c]pyridin-1-yl)-2-(methoxymethyl)pyrrolidin-1-yl)prop-2-en-1-one], at FGFR2 [1], the IC50 (commonly the concentration that gives 50% inhibition) is at most 100 nM.

For `C=CC(=O)N1C[C@@H](n2nc(C#Cc3ccc4c(c3)nc(C)n4C3CC3)c3c(N)nccc32)C[C@@H]1COC` [Example 17, 1-((2R,4S)-4-(4-amino-3-((1-cyclopropyl-2-methyl-1H-benzo[d]imidazol-5-yl)ethynyl)-1H-pyrazolo[4,3-c]pyridin-1-yl)-2-(methoxymethyl)pyrrolidin-1-yl)prop-2-en-1-one], the IC50 against FGFR2 [1] was at most 100 nM.

On FGFR2 [1], `C=CC(=O)N1C[C@@H](n2nc(C#Cc3c(F)cc4nc(C)n(C)c4c3F)c3c(N)ncnc32)C[C@@H]1COC` [Example 13, 1-((2R,4S)-4-(4-amino-3-((5,7-difluoro-1,2-dimethyl-1H-benzo[d]imidazol-6-yl)ethynyl)-1H-pyrazolo[3,4-d]pyrimidin-1-yl)-2-(methoxymethyl)pyrrolidin-1-yl)prop-2-en-1-one] gave an IC50 of at most 100 nM.

The compound `C=CC(=O)N1C[C@@H](n2nc(C#Cc3ccc4c(c3)nc(C)n4CC)c3c(N)nccc32)C[C@@H]1COC` [Example 21, 1-((2R,4S)-4-(4-amino-3-((1-ethyl-2-methyl-1H-benzo[d]imidazol-5-yl)ethynyl)-1H-pyrazolo[4,3-c]pyridin-1-yl)-2-(methoxymethyl)pyrrolidin-1-yl)prop-2-en-1-one] gave an IC50 against FGFR2 [1] of at most 100 nM.

Regarding `C=CC(=O)N1C[C@@H](n2nc(C#Cc3ccc4c(c3)nc(C)n4C3CC3)c3c(N)ncnc32)C[C@@H]1COC` [Example 15, 1-((2R,4S)-4-(4-amino-3-((1-cyclopropyl-2-methyl-1H-benzo[d]imidazol-5-yl)ethynyl)-1H-pyrazolo[3,4-d]pyrimidin-1-yl)-2-(methoxymethyl)pyrrolidin-1-yl)prop-2-en-1-one], on FGFR2 [1], the IC50 was at most 100 nM.

Take `C=CC(=O)N1C[C@@H](n2nc(C#Cc3ccc4[nH]c(C)nc4c3)c3c(N)nccc32)C[C@@H]1COC` [Example 22, 1-((2R,4S)-4-(4-amino-3-((2-methyl-1H-benzo[d]imidazol-5-yl)ethynyl)-1H-pyrazolo[4,3-c]pyridin-1-yl)-2-(methoxymethyl)pyrrolidin-1-yl)prop-2-en-1-one]: the IC50 at FGFR2 [1] was at most 100 nM.

Take `C=CC(=O)N1CC[C@H](n2nc(C#Cc3ccc4[nH]c(C)nc4c3)c3c(N)ncnc32)C1` [Example 7, (S)-1-(3-(4-amino-3-((2-methyl-1H-benzo[d]imidazol-5-yl)ethynyl)-1H-pyrazolo[3,4-d]pyrimidin-1-yl)pyrrolidin-1-yl)prop-2-en-1-one]: the IC50 against FGFR2 [1] is at most 100 nM.

For `C=CC(=O)N1C[C@@H](n2cc(C#Cc3ccc4nc(C)[nH]c4c3)c3c(N)ncnc32)C[C@@H]1COC` [Example 8, 1-[(2R,4S)-4-[4-amino-5-[2-(2-methyl-3H-1,3-benzodiazol-5-yl)ethynyl]pyrrolo[2,3-d]pyrimidin-7-yl]-2-(methoxymethyl)pyrrolidin-1-yl]prop-2-en-1-one], the IC50 against FGFR2 [1] is at most 100 nM.

`C=CC(=O)N1C[C@@H](n2nc(C#Cc3ccc4ncn(C)c4c3)c3c(N)ncnc32)C[C@@H]1COC` [Example 9, 1-((2R,4S)-4-(4-amino-3-((1-methyl-1H-benzo[d]imidazol-6-yl)ethynyl)-1H-pyrazolo[3,4-d]pyrimidin-1-yl)-2-(methoxymethyl)pyrrolidin-1-yl)prop-2-en-1-one] displayed an IC50 against FGFR2 [1] of 100 to 1000 nM.

`C=CC(=O)N1C[C@@H](n2nc(C#Cc3ccc4[nH]ncc4c3)c3c(N)ncnc32)C[C@@H]1COC` [Example 2, 1-((2R,4S)-4-(3-((1H-indazol-5-yl)ethynyl)-4-amino-1H-pyrazolo[3,4-d]pyrimidin-1-yl)-2-(methoxymethyl)pyrrolidin-1-yl)prop-2-en-1-one] displayed an IC50 at FGFR2 [1] of at most 100 nM.

On to `C=CC(=O)N1C[C@@H](n2nc(C#Cc3ccc4c(c3)ncn4C)c3c(N)ncnc32)C[C@@H]1COC` [Example 6, 1-((2R,4S)-4-(4-amino-3-((1-methyl-1H-benzo[d]imidazol-5-yl)ethynyl)-1H-pyrazolo[3,4-d]pyrimidin-1-yl)-2-(methoxymethyl)pyrrolidin-1-yl)prop-2-en-1-one], for which the IC50 on FGFR2 [1] was at most 100 nM.

In turn, `C=CC(=O)N1C[C@@H](n2nc(C#Cc3ccc4c(c3)ncn4C3CC3)c3c(N)nccc32)C[C@@H]1COC` [Example 24, 1-((2R,4S)-4-(4-amino-3-((1-cyclopropyl-1H-benzo[d]imidazol-5-yl)ethynyl)-1H-pyrazolo[4,3-c]pyridin-1-yl)-2-(methoxymethyl)pyrrolidin-1-yl)prop-2-en-1-one] registered an IC50 against FGFR2 [1] of at most 100 nM.

On FGFR2 [1], `C=CC(=O)N1C[C@@H](n2nc(C#Cc3ccc4[nH]cnc4c3)c3c(N)ncnc32)C[C@@H]1COC` [Example 5, 1-((2R,4S)-4-(3-((1H-benzo[d]imidazol-5-yl)ethynyl)-4-amino-1H-pyrazolo[3,4-d]pyrimidin-1-yl)-2-(methoxymethyl)pyrrolidin-1-yl)prop-2-en-1-one] registered an IC50 of at most 100 nM.

`C=CC(=O)N1C[C@@H](n2nc(C#Cc3ccc4nc(C)n(C)c4c3)c3c(N)ncnc32)C[C@@H]1COC` [Example 4, 1-((2R,4S)-4-(4-amino-3-((1,2-dimethyl-1H-benzo[d]imidazol-6-yl)ethynyl)-1H-pyrazolo[3,4-d]pyrimidin-1-yl)-2-(methoxymethyl)pyrrolidin-1-yl)prop-2-en-1-one] showed an IC50 at FGFR2 [1] of at most 100 nM.

Turning to `C=CC(=O)N1C[C@@H](n2nc(C#Cc3ccc4cn[nH]c4c3)c3c(N)ncnc32)C[C@@H]1COC` [Example 14, 1-((2R,4S)-4-(3-((1H-indazol-6-yl)ethynyl)-4-amino-1H-pyrazolo[3,4-d]pyrimidin-1-yl)-2-(methoxymethyl)pyrrolidin-1-yl)prop-2-en-1-one], at FGFR2 [1], the IC50 was at most 100 nM.

In the case of `C=CC(=O)N1C[C@@H](n2nc(C#Cc3ccc4c(c3)nc(C)n4C)c3c(N)nccc32)C[C@@H]1COC` [Example 25, 1-((2R,4S)-4-(4-amino-3-((1,2-dimethyl-1H-benzo[d]imidazol-5-yl)ethynyl)-1H-pyrazolo[4,3-c]pyridin-1-yl)-2-(methoxymethyl)pyrrolidin-1-yl)prop-2-en-1-one], the IC50 on FGFR2 [1] was at most 100 nM.

Regarding `C=CC(=O)N1CC[C@H](n2cc(C#Cc3ccc4[nH]c(C)nc4c3)c3c(N)ncnc32)C1` [Example 11, (S)-1-(3-(4-amino-5-((2-methyl-1H-benzo[d]imidazol-5-yl)ethynyl)-7H-pyrrolo[2,3-d]pyrimidin-7-yl)pyrrolidin-1-yl)prop-2-en-1-one], the IC50 at FGFR2 [1] was at most 100 nM.

For `C=CC(=O)N1C[C@@H](n2nc(C#Cc3ccc4c(c3)ncn4CC)c3c(N)nccc32)C[C@@H]1COC` [Example 23, 1-((2R,4S)-4-(4-amino-3-((1-ethyl-1H-benzo[d]imidazol-5-yl)ethynyl)-1H-pyrazolo[4,3-c]pyridin-1-yl)-2-(methoxymethyl)pyrrolidin-1-yl)prop-2-en-1-one], the IC50 at FGFR2 [1] is at most 100 nM.

`C=CC(=O)N1C[C@@H](n2nc(C#Cc3cc4nc(C)n(C)c4c(F)c3Cl)c3c(N)ncnc32)C[C@@H]1COC` [Example 125, 1-[(2R,4S)-4-[4-Amino-3-[2-(6-chloro-7-fluoro-1,2-dimethyl-1,3-benzodiazol-5-yl)ethynyl]pyrazolo[3,4-d]pyrimidin-1-yl]-2-(methoxymethyl)pyrrolidin-1-yl]prop-2-en-1-one] showed an IC50 at FGFR2 [2] of at most 100 nM.

The compound `C=CC(=O)N1C[C@@H](n2nc(C#Cc3c(Cl)cc4c(nc(C)n4C)c3F)c3c(N)nccc32)C[C@@H]1COC` [Example 103, 1-((2R,4S)-4-(4-Amino-3-((6-chloro-4-fluoro-1,2-dimethyl-1H-benzo[d]imidazol-5-yl)ethynyl)-1H-pyrazolo[4,3-c]pyridin-1-yl)-2-(methoxymethyl)pyrrolidin-1-yl)prop-2-en-1-one] registered an IC50 against FGFR2 [2] of at most 100 nM.

As to `C=CC(=O)N1C[C@@H](n2nc(C#Cc3cc4ncn(C)c4cc3F)c3c(N)ncnc32)C[C@@H]1C` [Example 151, 1-((2S,4S)-4-(4-amino-3-((1-methyl-6-fluoro-1H-benzo[d]imidazol-5-yl)ethynyl)-1H-pyrazolo[3,4-d]pyrimidin-1-yl)-2-methylpyrrolidin-1-yl)prop-2-en-1-one], the 50% inhibitory concentration (IC50) against FGFR2 [2] is at most 100 nM.
